Data taken from patent US20260306495A1, “COMBINATION OF CAPIVASERTIB, A CDK4/6 INHIBITOR AND FULVESTRANT FOR USE IN THE TREATMENT OF BREAST CANCER” (AstraZeneca AB, priority 2023, published 2026).

How the values were obtained:
[1] = Pharmacokinetics, ribociclib triplet (preliminary modelling from clinical data); assay type: in vivo, human; settings: for Increase of capivasertib AUC vs historical monotherapy data: preliminary modelling from clinical data
Experimental: In the open-label Phase Ib part of the study: • The initial palbociclib cohort will receive capivasertib (320 mg oral twice daily, 4 days on and 3 days off for 4 weeks), palbociclib (125 mg, oral once daily, dosed continually for 21 days out of 28 days), and fulvestrant (500 mg intramuscular injection [IM] monthly [Day 1 of a 28-day cycle] with a loading dose of 500 mg 2 weeks after the first dose). • The initial ribociclib cohort will explore the combination of capivasertib (400 mg oral twice daily, 4 days on and 3 days off for 4 weeks), ribociclib (400 mg, oral once daily, dosed continually for 21 days out of 28 days), and fulvestrant (500 mg IM monthly [Day 1 of a 28-day cycle] with a loading dose of 500 mg 2 weeks after the first dose). • The initial abemaciclib cohort will explore the combination of capivasertib (400 mg oral twice daily, 4 days on and 3 days off for 4 weeks), abemaciclib (100 mg, oral twice daily, 28 days out of 28 days), and fulvestrant (500 mg IM monthly [Day 1 of a 28-day cycle] with a loading dose of 500 mg 2 weeks after the first dose). […]

[2] = Pharmacokinetics, palbociclib triplet, CAPItello-292 Phase Ib; assay type: in vivo, human
Experimental: In the open-label Phase Ib part of the study: • The initial palbociclib cohort will receive capivasertib (320 mg oral twice daily, 4 days on and 3 days off for 4 weeks), palbociclib (125 mg, oral once daily, dosed continually for 21 days out of 28 days), and fulvestrant (500 mg intramuscular injection [IM] monthly [Day 1 of a 28-day cycle] with a loading dose of 500 mg 2 weeks after the first dose). • The initial ribociclib cohort will explore the combination of capivasertib (400 mg oral twice daily, 4 days on and 3 days off for 4 weeks), ribociclib (400 mg, oral once daily, dosed continually for 21 days out of 28 days), and fulvestrant (500 mg IM monthly [Day 1 of a 28-day cycle] with a loading dose of 500 mg 2 weeks after the first dose). • The initial abemaciclib cohort will explore the combination of capivasertib (400 mg oral twice daily, 4 days on and 3 days off for 4 weeks), abemaciclib (100 mg, oral twice daily, 28 days out of 28 days), and fulvestrant (500 mg IM monthly [Day 1 of a 28-day cycle] with a loading dose of 500 mg 2 weeks after the first dose).
At the time of data cut-off of 31 Oct. 2022, 39 patients had been treated with capivasertib in combination with palbociclib and fulvestrant across three dose levels. Dose 1 opened first; dose levels 2 and 3 opened simultaneously: • Dose level 1: capivasertib 320 mg+palbociclib 125 mg+fulvestrant 500 mg • Dose level 2: capivasertib 400 mg+palbociclib 100 mg+fulvestrant 500 mg • Dose level 3: capivasertib 400 mg+palbociclib 125 mg+fulvestrant 500 mg

[3] = Yu Y, et al. J Clin Pharmacol 2017; 57 (2): 173-184; cited from earlier work
Japanese participants = assay: DLTs, Japanese participants; assay type: in vivo, human (Japanese); settings: capivasertib + palbociclib 125 mg + fulvestrant
Text: (§1) For the Phase Ib part of the study, participants must be eligible for fulvestrant therapy and at least one of the following: palbociclib, ribociclib, or abemaciclib, as per local investigator assessment. Participants who received treatment with at least one prior endocrine therapy (alone or in combination) for ABC and a maximum of 2 lines prior chemotherapy (for global participants) or up to 1 prior line of chemotherapy (for Japanese participants) are eligible. […]

[4] = Pharmacokinetics, Japanese participants; assay type: in vivo, human (Japanese); settings: 100 mg oral (Japanese) vs 125 mg oral (rest of the world), with capivasertib 400 mg; preliminary limited data
Text: as §1

[5] = tested on: participants with locally advanced (inoperable) or metastatic HR+/HER2− breast cancer; assay: Dose-limiting toxicities (DLTs), CAPItello-292 Phase Ib, palbociclib triplet; assay type: in vivo, human; settings: triplet with capivasertib and fulvestrant
Text: The Phase Ib part of the study consists of an open-label, 3-arm dose finding phase to determine the safe and well tolerated doses and schedules (RP3D) of capivasertib plus CDK4/6i (palbociclib, ribociclib, or abemaciclib) and fulvestrant (the latter administered at fixed dose and schedule, as per label) as triplet combinations in participants with ABC. The maximum tolerated doses (MTD) may also be determined. […]

## NC1(C(=O)N[C@@H](CCO)c2ccc(Cl)cc2)CCN(c2ncnc3[nH]ccc23)CC1 [capivasertib, (S)-4-amino-N-(1-(4-chlorophenyl)-3-hydroxypropyl)-1-(7H-pyrrolo[2,3-d]pyrimidin-4-yl) piperidine-4-carboxamide]
[1]; with ribociclib 400 mg, 95% CI 1% to 43%
  Increase of capivasertib AUC vs historical monotherapy data: 19%
[1]; with ribociclib 600 mg, 95% CI 0% to 34%
  Increase of capivasertib AUC vs historical monotherapy data: 16%
[2]; in combination with palbociclib and fulvestrant
  PK of capivasertib versus previous monotherapy data: consistent with previous monotherapy data

## CC(=O)c1c(C)c2cnc(Nc3ccc(N4CCNCC4)cn3)nc2n(C2CCCC2)c1=O [palbociclib, 6-acetyl-8-cyclopentyl-5-methyl-2-{[5-(1-piperazinyl)-2-pyridinyl]amino}pyrido[2,3-d]pyrimidin-7 (8H)-one]
[3]
  Palbociclib expected accumulation ratio: 2.4
Japanese participants
  Incidence of DLTs (febrile neutropenia): led to palbociclib dose de-escalation from 125 mg to 100 mg
[4]
  Mean palbociclib plasma exposure, Japanese participants vs rest of the world: roughly similar
[2]; Cycle 1 Day 11 / Cycle 0 Day 1, with capivasertib and fulvestrant, 90% CI
  Palbociclib AUC accumulation, Day 11/Day 1 ratio: 2.89 (90% CI 2.64-3.15)
[2]; Cycle 1 Day 14 / Cycle 0 Day 1, with capivasertib and fulvestrant, 90% CI
  Palbociclib AUC accumulation, Day 14/Day 1 ratio: 2.77 (90% CI 2.54-3.03)
[2]; based on observed and expected accumulation from Cycle 0, Day 1 to Cycle 1, Day 11 and Day 14
  Increase of palbociclib area under curve (AUC) by capivasertib: approximately 20%
[5]
  Cause of the most frequent DLT (neutropenia/neutrophil count decreased): driven by palbociclib

## CN(C)C(=O)c1cc2cnc(Nc3ccc(N4CCNCC4)cn3)nc2n1C1CCCC1 [ribociclib, 7-cyclopentyl-N,N-dimethyl-2-{[5-(1-piperazinyl)-2-pyridinyl]amino}-7H-pyrrolo[2,3-d]pyrimidine-6-carboxamide]
[1]; with capivasertib, consistent with DDI predictions based on capivasertib as a weak CYP3A inhibitor
  Ribociclib exposure vs published population PK model: generally within model predictions
